Measurements published in ChEMBL document CHEMBL4330132, “5-Keto-3-cyano-2,4-diaminothiophenes as selective maternal embryonic leucine zipper kinase inhibitors” (Bioorg Med Chem Lett, 2019).

Key:
[1] = biological target: Serine/threonine-protein kinase 38-like (Homo sapiens) (UniProt Q9Y2H1); experiment: Binding affinity to wild-type human partial length NDR2 (N34 to E447 residues) expressed in bacterial expression system assessed as residual binding level at 1 uM by Kinomescan method relative to control
[2] = test system: Receptor-type tyrosine-protein kinase FLT3 (Homo sapiens), P36888 [R834Q]; experiment: Binding affinity to human partial length FLT3 R834Q mutant (V592 to Y969 residues) expressed in mammalian expression system assessed as residual binding level at 1 uM by Kinomescan method relative to control
[3] = biological target: Ephrin type-B receptor 4 (Homo sapiens) (UniProt P54760); experiment: Binding affinity to wild-type human partial length EPHB4 (H585 to G892 residues) expressed in bacterial expression system assessed as residual binding level at 1 uM by Kinomescan method relative to control
[4] = biological target: Cyclin-dependent kinase 2 (Homo sapiens) (UniProt P24941); experiment: Binding affinity to wild-type human full length CDK2 (M1 to L298 residues) expressed in bacterial expression system assessed as residual binding level at 1 uM by Kinomescan method relative to control
[5] = biological target: Wee1-like protein kinase (Homo sapiens) (UniProt P30291); experiment: Binding affinity to wild-type human partial length WEE1 (M291 to K575 residues) expressed in bacterial expression system assessed as residual binding level at 1 uM by Kinomescan method relative to control
[6] = biological target: Ephrin type-A receptor 4 (Homo sapiens) (UniProt P54764); experiment: Binding affinity to wild-type human partial length EPHA4 (T601 to R897 residues) expressed in bacterial expression system assessed as residual binding level at 1 uM by Kinomescan method relative to control
[7] = biological target: Receptor-interacting serine/threonine-protein kinase 4 (Homo sapiens) (UniProt P57078); experiment: Binding affinity to wild-type human partial length RIPK4 (M1 to V303 residues) expressed in mammalian expression system assessed as residual binding level at 1 uM by Kinomescan method relative to control
[8] = biological target: Death-associated protein kinase 3 (Homo sapiens) (UniProt O43293); experiment: Binding affinity to wild-type human partial length DAPK3 (M1 to A277 residues) expressed in bacterial expression system assessed as residual binding level at 1 uM by Kinomescan method relative to control
[9] = biological target: Serine/threonine-protein kinase PLK3 (Homo sapiens) (UniProt Q9H4B4); experiment: Binding affinity to wild-type human partial length PLK3 (A42 to L334 residues) expressed in mammalian expression system assessed as residual binding level at 1 uM by Kinomescan method relative to control
[10] = biological target: Glycogen synthase kinase-3 alpha (Homo sapiens) (UniProt P49840); experiment: Binding affinity to wild-type human full length GSK3A (M1 to S483 residues) expressed in bacterial expression system assessed as residual binding level at 1 uM by Kinomescan method relative to control
[11] = biological target: Serine/threonine-protein kinase 17B (Homo sapiens) (UniProt O94768); experiment: Binding affinity to wild-type human full length DRAK2 (M1 to C372 residues) expressed in bacterial expression system assessed as residual binding level at 1 uM by Kinomescan method relative to control
[12] = biological target: Dual specificity protein kinase CLK1 (Homo sapiens) (UniProt P49759); experiment: Binding affinity to wild-type human full length CLK1 (M1 to I484 residues) expressed in bacterial expression system assessed as residual binding level at 1 uM by Kinomescan method relative to control
[13] = biological target: Receptor-type tyrosine-protein kinase FLT3 (Homo sapiens) (UniProt P36888); experiment: Binding affinity to wild-type human partial length FLT3 (V592 to Y969 residues) expressed in bacterial expression system assessed as residual binding level at 1 uM by Kinomescan method relative to control
[14] = biological target: Casein kinase I isoform delta (Homo sapiens) (UniProt P48730); experiment: Binding affinity to wild-type human full length CSNK1D (M1 to K409 residues) expressed in bacterial expression system assessed as residual binding level at 1 uM by Kinomescan method relative to control
[15] = biological target: Cyclin-dependent kinase-like 2 (Homo sapiens) (UniProt Q92772); experiment: Binding affinity to wild-type human partial length CDKL2 (M1 to D327 residues) expressed in bacterial expression system assessed as residual binding level at 1 uM by Kinomescan method relative to control
[16] = test system: Tyrosine-protein kinase ABL1 (Homo sapiens), P00519 [Q252H]; experiment: Binding affinity to human non-phosphorylated ABL1 Q252H mutant (S229 to K512 residues) expressed in mammalian expression system assessed as residual binding level at 1 uM by Kinomescan method relative to control
[17] = test system: Tyrosine-protein kinase ABL1 (Homo sapiens), P00519 [M351T]; experiment: Binding affinity to human phosphorylated ABL1 M351T mutant (S229 to K512 residues) expressed in mammalian expression system assessed as residual binding level at 1 uM by Kinomescan method relative to control
[18] = biological target: Phosphatidylinositol 3-kinase C2 domain-containing subunit gamma (Homo sapiens) (UniProt O75747); experiment: Binding affinity to wild-type human partial length PIK3C2G (M1 to I1446 residues) expressed in mammalian expression system assessed as residual binding level at 1 uM by Kinomescan method relative to control
[19] = biological target: Dual specificity mitogen-activated protein kinase kinase 1 (Homo sapiens) (UniProt Q02750); experiment: Binding affinity to wild-type human full length MEK1 (M1 to V393 residues) expressed in mammalian expression system assessed as residual binding level at 1 uM by Kinomescan method relative to control
[20] = biological target: Mitogen-activated protein kinase kinase kinase kinase 1 (Homo sapiens) (UniProt Q92918); experiment: Binding affinity to wild-type human full length HPK1 (M1 to R799 residues) expressed in bacterial expression system assessed as residual binding level at 1 uM by Kinomescan method relative to control
[21] = biological target: Serine/threonine-protein kinase 33 (Homo sapiens) (UniProt Q9BYT3); experiment: Binding affinity to wild-type human full length STK33 (M1 to L514 residues) expressed in bacterial expression system assessed as residual binding level at 1 uM by Kinomescan method relative to control
[22] = biological target: Calcium/calmodulin-dependent protein kinase type II subunit delta (Homo sapiens) (UniProt Q13557); experiment: Binding affinity to wild-type human partial length CAMK2D (M1 to E329 residues) expressed in bacterial expression system assessed as residual binding level at 1 uM by Kinomescan method relative to control
[23] = biological target: Serine/threonine-protein kinase tousled-like 1 (Homo sapiens) (UniProt Q9UKI8); experiment: Binding affinity to wild-type human partial length TLK1 (K447 to A754 residues) expressed in bacterial expression system assessed as residual binding level at 1 uM by Kinomescan method relative to control
[24] = biological target: Tyrosine-protein kinase Fes/Fps (Homo sapiens) (UniProt P07332); experiment: Binding affinity to wild-type human partial length FES (I527 to R822 residues) expressed in bacterial expression system assessed as residual binding level at 1 uM by Kinomescan method relative to control

Chain of Serine/threonine-protein kinase tousled-like 1 (Homo sapiens) (Q9UKI8 whole entry, the tested form may be a part): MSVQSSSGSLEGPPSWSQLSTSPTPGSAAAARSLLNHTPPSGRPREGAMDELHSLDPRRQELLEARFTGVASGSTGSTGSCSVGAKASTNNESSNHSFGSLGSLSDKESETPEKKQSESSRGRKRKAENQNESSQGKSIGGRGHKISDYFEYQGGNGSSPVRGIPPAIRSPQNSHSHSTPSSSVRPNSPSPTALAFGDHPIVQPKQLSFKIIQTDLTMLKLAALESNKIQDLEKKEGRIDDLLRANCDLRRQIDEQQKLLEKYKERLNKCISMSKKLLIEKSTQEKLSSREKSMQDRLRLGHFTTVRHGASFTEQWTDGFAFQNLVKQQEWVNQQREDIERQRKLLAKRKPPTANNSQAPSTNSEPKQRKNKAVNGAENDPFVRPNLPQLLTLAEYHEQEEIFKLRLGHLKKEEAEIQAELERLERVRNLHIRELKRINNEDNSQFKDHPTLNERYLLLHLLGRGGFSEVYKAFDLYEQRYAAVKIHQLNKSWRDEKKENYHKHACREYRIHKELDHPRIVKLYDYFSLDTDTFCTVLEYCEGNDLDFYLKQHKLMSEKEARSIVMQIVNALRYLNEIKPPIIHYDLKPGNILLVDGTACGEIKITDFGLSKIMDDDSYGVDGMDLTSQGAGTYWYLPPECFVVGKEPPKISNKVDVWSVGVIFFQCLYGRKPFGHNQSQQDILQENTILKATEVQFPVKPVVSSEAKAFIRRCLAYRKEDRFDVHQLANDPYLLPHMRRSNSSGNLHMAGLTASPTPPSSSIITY
Chain of Casein kinase I isoform delta (Homo sapiens) (P48730 whole entry, looked up, the tested form may be a part, canonical isoform): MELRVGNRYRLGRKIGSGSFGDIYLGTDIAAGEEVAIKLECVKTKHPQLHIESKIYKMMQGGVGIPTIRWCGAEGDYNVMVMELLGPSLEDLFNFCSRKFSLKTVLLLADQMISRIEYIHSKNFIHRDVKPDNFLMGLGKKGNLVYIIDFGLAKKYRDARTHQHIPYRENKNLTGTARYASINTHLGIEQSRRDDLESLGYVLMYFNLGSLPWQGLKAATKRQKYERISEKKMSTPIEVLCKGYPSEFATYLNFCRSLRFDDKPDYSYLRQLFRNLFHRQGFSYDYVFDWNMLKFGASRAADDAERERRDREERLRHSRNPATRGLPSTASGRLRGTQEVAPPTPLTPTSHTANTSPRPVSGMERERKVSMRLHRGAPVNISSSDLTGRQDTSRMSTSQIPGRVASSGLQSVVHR
Chain of Wee1-like protein kinase (Homo sapiens) (P30291 whole entry, looked up, the tested form may be a part): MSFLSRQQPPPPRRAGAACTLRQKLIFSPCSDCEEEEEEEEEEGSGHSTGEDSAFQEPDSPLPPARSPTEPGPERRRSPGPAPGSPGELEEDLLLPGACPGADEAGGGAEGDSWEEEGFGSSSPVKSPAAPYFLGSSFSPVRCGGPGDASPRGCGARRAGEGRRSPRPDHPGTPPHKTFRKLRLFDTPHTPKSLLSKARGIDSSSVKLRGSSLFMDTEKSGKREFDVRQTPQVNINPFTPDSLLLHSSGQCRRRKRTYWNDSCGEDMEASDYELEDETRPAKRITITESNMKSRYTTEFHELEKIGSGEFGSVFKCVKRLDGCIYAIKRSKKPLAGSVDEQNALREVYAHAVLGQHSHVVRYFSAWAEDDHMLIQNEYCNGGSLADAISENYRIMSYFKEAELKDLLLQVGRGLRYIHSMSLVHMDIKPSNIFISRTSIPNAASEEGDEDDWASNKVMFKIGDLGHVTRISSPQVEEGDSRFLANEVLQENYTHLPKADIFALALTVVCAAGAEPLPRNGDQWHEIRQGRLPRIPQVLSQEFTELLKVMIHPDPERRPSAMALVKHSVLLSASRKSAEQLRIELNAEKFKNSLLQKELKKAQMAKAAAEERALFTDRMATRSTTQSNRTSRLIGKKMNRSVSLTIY
Chain of Dual specificity protein kinase CLK1 (Homo sapiens) (P49759 whole entry, looked up, the tested form may be a part): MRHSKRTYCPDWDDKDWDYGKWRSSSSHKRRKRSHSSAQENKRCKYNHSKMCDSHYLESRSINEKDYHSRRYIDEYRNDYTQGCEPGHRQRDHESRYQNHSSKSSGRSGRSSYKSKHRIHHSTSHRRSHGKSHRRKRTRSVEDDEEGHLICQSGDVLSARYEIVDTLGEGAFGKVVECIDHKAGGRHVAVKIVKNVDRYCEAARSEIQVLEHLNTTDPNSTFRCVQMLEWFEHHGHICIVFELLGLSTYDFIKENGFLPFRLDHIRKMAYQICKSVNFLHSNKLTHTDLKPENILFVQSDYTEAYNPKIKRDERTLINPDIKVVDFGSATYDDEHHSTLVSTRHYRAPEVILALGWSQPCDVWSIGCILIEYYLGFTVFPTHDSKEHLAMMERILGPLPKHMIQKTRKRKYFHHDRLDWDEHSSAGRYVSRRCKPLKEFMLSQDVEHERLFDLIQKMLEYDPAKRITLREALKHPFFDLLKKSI
Chain of Cyclin-dependent kinase-like 2 (Homo sapiens) (Q92772 whole entry, the tested form may be a part): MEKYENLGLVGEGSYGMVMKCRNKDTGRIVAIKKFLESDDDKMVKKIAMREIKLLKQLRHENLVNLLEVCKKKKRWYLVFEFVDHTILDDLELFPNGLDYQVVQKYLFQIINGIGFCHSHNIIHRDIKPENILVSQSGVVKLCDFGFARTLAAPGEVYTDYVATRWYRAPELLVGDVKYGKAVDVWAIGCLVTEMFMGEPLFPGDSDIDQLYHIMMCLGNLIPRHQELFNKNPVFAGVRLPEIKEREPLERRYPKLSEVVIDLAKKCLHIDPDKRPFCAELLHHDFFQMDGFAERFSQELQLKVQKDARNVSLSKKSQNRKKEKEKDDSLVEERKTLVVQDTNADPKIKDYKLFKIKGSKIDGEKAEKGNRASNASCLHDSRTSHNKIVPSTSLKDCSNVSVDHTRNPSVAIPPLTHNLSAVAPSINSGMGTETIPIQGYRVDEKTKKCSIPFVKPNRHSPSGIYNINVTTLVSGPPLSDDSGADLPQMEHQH
Chain of Serine/threonine-protein kinase 33 (Homo sapiens) (Q9BYT3 whole entry, looked up, the tested form may be a part): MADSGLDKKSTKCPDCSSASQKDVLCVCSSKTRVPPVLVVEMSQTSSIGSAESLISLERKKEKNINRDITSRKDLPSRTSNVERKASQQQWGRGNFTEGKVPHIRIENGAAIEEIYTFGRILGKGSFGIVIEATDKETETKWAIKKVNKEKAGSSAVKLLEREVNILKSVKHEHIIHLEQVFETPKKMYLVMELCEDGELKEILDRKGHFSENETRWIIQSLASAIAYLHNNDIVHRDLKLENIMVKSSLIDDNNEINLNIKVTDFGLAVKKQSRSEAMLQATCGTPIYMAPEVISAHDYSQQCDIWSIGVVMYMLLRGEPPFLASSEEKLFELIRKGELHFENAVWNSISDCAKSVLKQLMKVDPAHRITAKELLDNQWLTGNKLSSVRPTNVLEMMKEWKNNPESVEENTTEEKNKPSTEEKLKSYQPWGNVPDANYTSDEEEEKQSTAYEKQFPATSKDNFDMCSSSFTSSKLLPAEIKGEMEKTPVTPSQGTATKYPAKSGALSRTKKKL
Chain of Death-associated protein kinase 3 (Homo sapiens) (O43293 whole entry, looked up, the tested form may be a part): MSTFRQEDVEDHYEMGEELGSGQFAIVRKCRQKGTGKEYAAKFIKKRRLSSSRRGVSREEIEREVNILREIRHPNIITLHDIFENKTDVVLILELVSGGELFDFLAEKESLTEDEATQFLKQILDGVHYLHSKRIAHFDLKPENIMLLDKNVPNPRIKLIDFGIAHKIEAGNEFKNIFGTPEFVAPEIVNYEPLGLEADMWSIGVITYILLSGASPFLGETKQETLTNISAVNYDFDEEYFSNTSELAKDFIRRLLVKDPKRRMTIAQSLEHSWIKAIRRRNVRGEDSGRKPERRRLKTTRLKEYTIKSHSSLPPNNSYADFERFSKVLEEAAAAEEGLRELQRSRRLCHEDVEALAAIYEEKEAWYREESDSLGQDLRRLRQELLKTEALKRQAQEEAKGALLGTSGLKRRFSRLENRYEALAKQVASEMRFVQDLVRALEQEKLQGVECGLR
Chain of Ephrin type-A receptor 4 (Homo sapiens) (P54764 whole entry, the tested form may be a part): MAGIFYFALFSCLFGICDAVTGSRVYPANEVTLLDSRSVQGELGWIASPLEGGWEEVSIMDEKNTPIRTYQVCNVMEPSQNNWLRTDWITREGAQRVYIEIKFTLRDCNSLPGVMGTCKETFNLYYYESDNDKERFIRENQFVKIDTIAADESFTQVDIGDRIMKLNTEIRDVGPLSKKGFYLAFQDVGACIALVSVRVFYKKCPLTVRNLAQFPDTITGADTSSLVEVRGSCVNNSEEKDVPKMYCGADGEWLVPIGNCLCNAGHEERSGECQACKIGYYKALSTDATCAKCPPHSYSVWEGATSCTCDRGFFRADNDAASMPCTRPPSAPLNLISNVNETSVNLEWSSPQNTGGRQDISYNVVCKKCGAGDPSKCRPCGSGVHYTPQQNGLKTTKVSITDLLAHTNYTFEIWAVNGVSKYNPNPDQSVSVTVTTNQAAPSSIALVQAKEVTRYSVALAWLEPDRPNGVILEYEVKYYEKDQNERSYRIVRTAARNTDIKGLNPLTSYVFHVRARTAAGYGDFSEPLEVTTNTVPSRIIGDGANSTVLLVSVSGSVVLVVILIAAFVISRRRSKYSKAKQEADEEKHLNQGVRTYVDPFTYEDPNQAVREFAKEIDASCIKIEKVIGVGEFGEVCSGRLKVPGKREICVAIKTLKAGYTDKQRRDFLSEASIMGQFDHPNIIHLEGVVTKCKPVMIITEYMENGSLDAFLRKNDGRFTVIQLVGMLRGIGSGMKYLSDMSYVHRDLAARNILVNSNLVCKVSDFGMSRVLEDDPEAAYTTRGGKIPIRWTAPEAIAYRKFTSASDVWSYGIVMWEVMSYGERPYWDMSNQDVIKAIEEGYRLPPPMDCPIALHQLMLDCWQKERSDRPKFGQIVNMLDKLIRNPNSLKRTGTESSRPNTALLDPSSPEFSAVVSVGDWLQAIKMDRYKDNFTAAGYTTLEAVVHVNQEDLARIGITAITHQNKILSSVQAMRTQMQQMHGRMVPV

Q: CC(C)Nc1sc(C(=O)c2ccc(Cl)s2)c(N)c1C#N was tested. Which Activity [1] did it give?
A: 89%

Q: And the Activity [2]?
A: 99%

Q: And the Activity [3]?
A: 93%

Q: What about the Activity [4] of the same compound?
A: 66%

Q: And the Activity [5]?
A: 94%

Q: And the Activity [6]?
A: 93%

Q: And the Activity [7]?
A: 100%

Q: And the Activity [8]?
A: 74%

Q: And the Activity [9]?
A: 85%

Q: And the Activity [10]?
A: 100%

Q: What about the Activity [11] of the same compound?
A: 37%

Q: What about the Activity [12] of the same compound?
A: 70%

Q: And the Activity [13]?
A: 93%

Q: What about the Activity [14] of the same compound?
A: 59%

Q: And the Activity [15]?
A: 80%

Q: And the Activity [16]?
A: 100%

Q: What about the Activity [17] of the same compound?
A: 100%

Q: What about the Activity [18] of the same compound?
A: 84%

Q: What about the Activity [19] of the same compound?
A: 96%

Q: And the Activity [20]?
A: 100%

Q: What about the Activity [21] of the same compound?
A: 57%

Q: What about the Activity [22] of the same compound?
A: 79%

Q: What about the Activity [23] of the same compound?
A: 100%

Q: And the Activity [24]?
A: 98%
